# Data as given in ChEMBL document CHEMBL3994622, “Design and synthesis of new RAF kinase-inhibiting antiproliferative quinoline derivatives. Part 2: Diarylurea derivatives” (Eur J Med Chem, 2017).
# Tests used:
# UACC-62 = test: Growth inhibition of human UACC62 cells assessed as cell growth at 10 uM incubated for 48 hrs by sulforhodamine B assay relative to control; type: functional; conditions: UACC-62, 48 h, read-out: Activity
# OVCAR-3 = test: Growth inhibition of human OVCAR3 cells assessed as cell growth at 10 uM incubated for 48 hrs by sulforhodamine B assay relative to control; type: functional; conditions: OVCAR-3, 48 h, read-out: Activity
# KM12 = test: Growth inhibition of human KM12 cells assessed as cell growth at 10 uM incubated for 48 hrs by sulforhodamine B assay relative to control; type: functional; conditions: KM12, 48 h, read-out: Activity
# U-251 = test: Growth inhibition of human U251 cells assessed as cell growth at 10 uM incubated for 48 hrs by sulforhodamine B assay relative to control; type: functional; conditions: U-251, 48 h, read-out: Activity
# SK-MEL-5 = test: Growth inhibition of human SK-MEL-5 cells assessed as cell growth at 10 uM incubated for 48 hrs by sulforhodamine B assay relative to control; type: functional; conditions: SK-MEL-5, 48 h, read-out: Activity
# NCI/ADR-RES = test: Growth inhibition of human NCI/ADR-RES cells incubated for 48 hrs by sulforhodamine B assay; type: functional
# SN12C = test: Growth inhibition of human SN12C cells assessed as cell growth at 10 uM incubated for 48 hrs by sulforhodamine B assay relative to control; type: functional; conditions: read-out: Activity
# DU-145 = test: Growth inhibition of human DU145 cells assessed as cell growth at 10 uM incubated for 48 hrs by sulforhodamine B assay relative to control; type: functional; conditions: DU-145, 48 h, read-out: Activity
# NCI-H226 [1] = test: Growth inhibition of human NCI-H226 cells assessed as cell growth at 10 uM incubated for 48 hrs by sulforhodamine B assay relative to control; type: functional; conditions: NCI-H226, 48 h, read-out: Activity
# HCC 2998 = test: Growth inhibition of human HCC2998 cells assessed as cell growth at 10 uM incubated for 48 hrs by sulforhodamine B assay relative to control; type: functional; conditions: HCC 2998, 48 h, read-out: Activity
# [2] = target: RAF proto-oncogene serine/threonine-protein kinase (Homo sapiens, UniProt P04049); test: Inhibition of human c-RAF using MEK1 as substrate in presence of [33P]ATP by Hotspot assay
# Hs-578T [3] = test: Growth inhibition of human Hs 578T cells assessed as cell growth at 10 uM incubated for 48 hrs by sulforhodamine B assay relative to control; type: functional; conditions: read-out: Activity
# RXF 393 = test: Growth inhibition of human RXF393 cells assessed as cell growth at 10 uM incubated for 48 hrs by sulforhodamine B assay relative to control; type: functional; conditions: RXF 393, 48 h, read-out: Activity
# SK-MEL-2 = test: Growth inhibition of human SK-MEL-2 cells assessed as cell growth at 10 uM incubated for 48 hrs by sulforhodamine B assay relative to control; type: functional; conditions: SK-MEL-2, 48 h, read-out: Activity
# Malme-3M = test: Growth inhibition of human MALME-3M cells assessed as cell growth at 10 uM incubated for 48 hrs by sulforhodamine B assay relative to control; type: functional; conditions: read-out: Activity
# SF-268 = test: Growth inhibition of human SF268 cells incubated for 48 hrs by sulforhodamine B assay; type: functional; conditions: SF-268, 48 h
# NCI-H460 = test: Growth inhibition of human NCI-H460 cells assessed as cell growth at 10 uM incubated for 48 hrs by sulforhodamine B assay relative to control; type: functional; conditions: NCI-H460, 48 h, read-out: Activity
# EKVX = test: Growth inhibition of human EKVX cells assessed as cell growth at 10 uM incubated for 48 hrs by sulforhodamine B assay relative to control; type: functional; conditions: read-out: Activity
# SK-OV-3 [4] = test: Growth inhibition of human SKOV3 cells assessed as cell growth at 10 uM incubated for 48 hrs by sulforhodamine B assay relative to control; type: functional; conditions: SK-OV-3, 48 h, read-out: Activity
# SK-OV-3 [5] = test: Growth inhibition of human SKOV3 cells incubated for 48 hrs by sulforhodamine B assay; type: functional; conditions: SK-OV-3, 48 h
# NCI-H226 [6] = test: Growth inhibition of human NCI-H226 cells incubated for 48 hrs by sulforhodamine B assay; type: functional; conditions: NCI-H226, 48 h
# Hs-578T [7] = test: Growth inhibition of human Hs 578T cells incubated for 48 hrs by sulforhodamine B assay; type: functional
# CAKI-1 = test: Growth inhibition of human Caki1 cells assessed as cell growth at 10 uM incubated for 48 hrs by sulforhodamine B assay relative to control; type: functional; conditions: CAKI-1, 48 h, read-out: Activity
# RPMI-8226 = test: Growth inhibition of human RPMI8226 cells assessed as cell growth at 10 uM incubated for 48 hrs by sulforhodamine B assay relative to control; type: functional; conditions: RPMI-8226, 48 h, read-out: Activity
# HOP-62 = test: Growth inhibition of human HOP62 cells assessed as cell growth at 10 uM incubated for 48 hrs by sulforhodamine B assay relative to control; type: functional; conditions: HOP-62, 48 h, read-out: Activity
# HCT-15 = test: Growth inhibition of human HCT15 cells incubated for 48 hrs by sulforhodamine B assay; type: functional; conditions: HCT-15, 48 h
# MDA-MB-468 = test: Growth inhibition of human MDA-MB-468 cells assessed as cell growth at 10 uM incubated for 48 hrs by sulforhodamine B assay relative to control; type: functional; conditions: MDA-MB-468, 48 h, read-out: Activity
# HCT-116 = test: Growth inhibition of human HCT116 cells assessed as cell growth at 10 uM incubated for 48 hrs by sulforhodamine B assay relative to control; type: functional; conditions: HCT-116, 48 h, read-out: Activity
# A549 = test: Growth inhibition of human A549/ATCC cells assessed as cell growth at 10 uM incubated for 48 hrs by sulforhodamine B assay relative to control; type: functional; conditions: A549, 48 h, read-out: Activity
# UO-31 = test: Growth inhibition of human UO31 cells assessed as cell growth at 10 uM incubated for 48 hrs by sulforhodamine B assay relative to control; type: functional; conditions: UO-31, 48 h, read-out: Activity
# OVCAR-4 = test: Growth inhibition of human OVCAR4 cells assessed as cell growth at 10 uM incubated for 48 hrs by sulforhodamine B assay relative to control; type: functional; conditions: OVCAR-4, 48 h, read-out: Activity
# A498 = test: Growth inhibition of human A498 cells incubated for 48 hrs by sulforhodamine B assay; type: functional; conditions: A498, 48 h
# [8] = read-out: LC50 (the source's name)
# RAF proto-oncogene serine/threonine-protein kinase, sequence (P04049 whole entry): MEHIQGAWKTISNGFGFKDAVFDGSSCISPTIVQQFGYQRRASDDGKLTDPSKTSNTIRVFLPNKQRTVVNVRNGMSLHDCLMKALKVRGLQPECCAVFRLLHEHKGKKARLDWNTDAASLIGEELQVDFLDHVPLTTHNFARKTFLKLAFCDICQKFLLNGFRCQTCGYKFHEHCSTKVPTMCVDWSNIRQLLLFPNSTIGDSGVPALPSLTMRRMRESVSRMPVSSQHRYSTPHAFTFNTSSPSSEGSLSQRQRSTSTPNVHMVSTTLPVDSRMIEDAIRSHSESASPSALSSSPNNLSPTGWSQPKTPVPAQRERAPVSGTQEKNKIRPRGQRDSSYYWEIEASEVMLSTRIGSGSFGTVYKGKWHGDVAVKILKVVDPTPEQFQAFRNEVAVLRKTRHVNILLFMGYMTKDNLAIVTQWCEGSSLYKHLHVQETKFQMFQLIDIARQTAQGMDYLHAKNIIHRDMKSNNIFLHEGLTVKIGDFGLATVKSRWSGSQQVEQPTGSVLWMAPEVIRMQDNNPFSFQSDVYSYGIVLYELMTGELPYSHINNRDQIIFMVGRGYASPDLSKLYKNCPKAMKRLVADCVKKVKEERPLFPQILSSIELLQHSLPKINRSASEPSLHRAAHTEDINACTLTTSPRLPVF
compound,measurement,setting,value
COc1cc2cc(Oc3ccc(NC(=O)Nc4cc(C(F)(F)F)cc(C(F)(F)F)c4)cc3)c(C)nc2cc1OC,growth at 10 µM,UACC-62,-34.6%
same,growth at 10 µM,OVCAR-3,1.71%
same,growth at 10 µM,KM12,5.61%
same,growth at 10 µM,U-251,-26.5%
same,growth at 10 µM,SK-MEL-5,-58.5%
same,GI50,NCI/ADR-RES,1270 nM
same,TGI,NCI/ADR-RES,3.44 µM
same,CC50,NCI/ADR-RES; [8],7.04 µM
same,growth at 10 µM,SN12C,7.69%
same,growth at 10 µM,DU-145,19.5%
same,growth at 10 µM,NCI-H226 [1],-10.2%
same,growth at 10 µM,HCC 2998,21.3%
same,IC50,[2],370 nM
same,growth at 10 µM,Hs-578T [3],-10.7%
same,growth at 10 µM,RXF 393,-24.5%
same,growth at 10 µM,SK-MEL-2,-30.4%
same,growth at 10 µM,Malme-3M,-3.13%
same,GI50,SF-268,1620 nM
same,LC50 (50% lethal concentration),SF-268,8.37 µM
same,TGI,SF-268,3.68 µM
same,growth at 10 µM,NCI-H460,7%
same,growth at 10 µM,EKVX,2.88%
same,growth at 10 µM,SK-OV-3 [4],-1.05%
same,GI50,SK-OV-3 [5],1710 nM
same,TGI,SK-OV-3 [5],3.47 µM
same,CC50,SK-OV-3 [5]; [8],5.91 µM
same,GI50,NCI-H226 [6],1800 nM
same,TGI,NCI-H226 [6],3.91 µM
same,CC50,NCI-H226 [6]; [8],8.53 µM
same,GI50,Hs-578T [7],2650 nM
same,TGI,Hs-578T [7],6.94 µM
same,CC50,Hs-578T [7]; [8],8.07 µM
same,growth at 10 µM,CAKI-1,6.4%
same,growth at 10 µM,RPMI-8226,1.15%
same,growth at 10 µM,HOP-62,-54.1%
same,GI50,HCT-15,668 to 670 nM
same,"LC50 (lethal concentration, 50% net cell kill)",HCT-15,4.91 µM
same,TGI,HCT-15,2040 nM
same,growth at 10 µM,MDA-MB-468,-8.12%
same,growth at 10 µM,HCT-116,3.73%
same,growth at 10 µM,A549,5.93%
same,growth at 10 µM,UO-31,11.6%
same,growth at 10 µM,OVCAR-4,27.9%
same,GI50,A498,1600 nM
same,TGI,A498,4.29 µM
same,CC50,A498; [8],7.98 µM
